Measured values taken from patent US5478929A, “Bioconversion products of 27-hydroxy avermectin” (Merck & Co., Inc., priority 1994, dated 1995).

Assays:
Assay type in all cases: in vivo
[1] = test system: Trichostrongylus sigmodontis; assay: Anthelmintic activity against Trichostrongylus sigmodontis (large bowel worm); conditions: for Activity profile, Trichostrongulus sigmodontis: Table 4; for Anthelmintic activity, Trichostrongylus sigmodontis: Table 2; for Anthelmintic activity, Trichostrongylus sigmodontis: key: A*: highly active; M: moderately active; I: inactive
Source text: The anthelmintic activity of the instant compound may be determined by orally administering via the feed, a sample of the individual compound, a mixture of such compound, a concentrated extract, and the like to a mouse which had been infected 3 days earlier with a gastrointestinal parasite. At 11, 12 and 13 days after the initiation of the medication, the feces of the mouse are examined for eggs, and on the next day the mouse is sacrificed and the number of worms present in the proximal portion of the small intestine are determined. An active compound is observed when there is a significant reduction of egg and worm counts when compared to infected, unmedicated controls.

[2] = test system: Haemonchus contortus; assay: Anthelmintic activity against Haemonchus contortus; conditions: for Activity profile, Haemonchus Contortus: Table 4
[3] = test system: Trichostrongylus colubriformis; assay: Anthelmintic activity against Trichostrongylus colubriformis; conditions: Table 4
[4] = test system: Lucilla larva; assay: Insecticidal activity, Lucilla larva; conditions: for Insecticidal activity, Lucilla larva 48 hrs: listed as 27-OH ivermectins Isomer B; for all read-outs here: key: A*: highly active; M: moderately active; I: inactive

4"-O-glucosyl, 27-OH -22,23 dihydro B1a isomer A [4"-O-glucosyl, 27-OH-22,23 dihydro B1a isomer A]
Activity profile, Trichostrongulus sigmodontis ([1]; 0.0625 mg/kg): A (85-100% effective) | Activity profile, Trichostrongulus sigmodontis ([1]; 0.125 mg/kg): A (85-100% effective) | Activity profile, Trichostrongulus sigmodontis ([1]; 0.25 mg/kg): A (85-100% effective) | Activity profile, Haemonchus Contortus ([2]; 0.0625 mg/kg): MA (60-85% effective) | Activity profile, Haemonchus Contortus ([2]; 0.125 mg/kg): A (85-100% effective) | Activity profile, Haemonchus Contortus ([2]; 0.25 mg/kg): A (85-100% effective) | Activity profile, Trichostrongulus colubriformis ([3]; 0.0625 mg/kg): SLA (35-60% effective) | Activity profile, Trichostrongulus colubriformis ([3]; 0.125 mg/kg): A (85-100% effective) | Activity profile, Trichostrongulus colubriformis ([3]; 0.25 mg/kg): A (85-100% effective)

4"-O-glucosyl, 27-OH B1a [4"-O-glucosyl, 27-OH B1a isomer B]
Activity profile, Trichostrongulus sigmodontis ([1]; 0.0625 mg/kg): A (85-100% effective) | Activity profile, Trichostrongulus sigmodontis ([1]; 0.125 mg/kg): A (85-100% effective) | Activity profile, Trichostrongulus sigmodontis ([1]; 0.25 mg/kg): A (85-100% effective) | Activity profile, Haemonchus Contortus ([2]; 0.0625 mg/kg): I | Activity profile, Haemonchus Contortus ([2]; 0.125 mg/kg): A (85-100% effective) | Activity profile, Haemonchus Contortus ([2]; 0.25 mg/kg): A (85-100% effective) | Activity profile, Trichostrongulus colubriformis ([3]; 0.0625 mg/kg): I | Activity profile, Trichostrongulus colubriformis ([3]; 0.125 mg/kg): A (85-100% effective) | Activity profile, Trichostrongulus colubriformis ([3]; 0.25 mg/kg): A (85-100% effective)

4"-O-glucosyl, 27-OH-22,23 dihydro B 1 a isomer B [4"-O-glucosyl, 27-OH-22,23 dihydro B1a isomer B]
Activity profile, Trichostrongulus sigmodontis ([1]; 0.0625 mg/kg): A (85-100% effective) | Activity profile, Trichostrongulus sigmodontis ([1]; 0.125 mg/kg): A (85-100% effective) | Activity profile, Trichostrongulus sigmodontis ([1]; 0.25 mg/kg): A (85-100% effective) | Activity profile, Haemonchus Contortus ([2]; 0.0625 mg/kg): I | Activity profile, Haemonchus Contortus ([2]; 0.125 mg/kg): MA (60-85% effective) | Activity profile, Haemonchus Contortus ([2]; 0.25 mg/kg): A (85-100% effective) | Activity profile, Trichostrongulus colubriformis ([3]; 0.0625 mg/kg): SLA (35-60% effective) | Activity profile, Trichostrongulus colubriformis ([3]; 0.125 mg/kg): MA (60-85% effective) | Activity profile, Trichostrongulus colubriformis ([3]; 0.25 mg/kg): A (85-100% effective)

CC1=C[C@H]2C(=O)O[C@H]3C[C@@H](C/C=C(\C)[C@@H](O)[C@@H](C)/C=C/C=C4\CO[C@H]([C@@H]1O)[C@@]42O)O[C@@]1(CC[C@H](C)[C@@H]([C@@H](C)C(C)O)O1)C3 (single isomer, unassigned) [27-OH-22,23 dihydro B1a aglycone isomer A, 27-hydroxy ivermectin aglycone]
Activity profile, Trichostrongulus sigmodontis ([1]; 1.00 mg/kg): I | Activity profile, Haemonchus Contortus ([2]; 1.00 mg/kg): I | Activity profile, Trichostrongulus colubriformis ([3]; 1.00 mg/kg): I

CC1=C[C@H]2C(=O)O[C@H]3C[C@@H](C/C=C(\C)[C@@H](O)[C@@H](C)/C=C/C=C4\CO[C@H]([C@@H]1O)[C@@]42O)O[C@@]1(CC[C@H](C)[C@@H]([C@@H](C)C(C)O)O1)C3 (single isomer, unassigned) [27-OH-22,23 dihydro B1a aglycone isomer B, 27-hydroxy ivermectin aglycone]
Activity profile, Trichostrongulus sigmodontis ([1]; 1.00 mg/kg): I | Activity profile, Haemonchus Contortus ([2]; 1.00 mg/kg): I | Activity profile, Trichostrongulus colubriformis ([3]; 1.00 mg/kg): I

CO[C@H]1C[C@H](O[C@H]2[C@H](C)O[C@@H](O[C@@H]3/C(C)=C/C[C@@H]4C[C@@H](C[C@]5(CC[C@H](C)[C@@H]([C@@H](C)C(C)O)O5)O4)OC(=O)[C@@H]4C=C(C)[C@@H](O)[C@H]5OC/C(=C\C=C\[C@@H]3C)[C@]54O)C[C@@H]2OC)O[C@@H](C)[C@@H]1O (single isomer, unassigned) [27-OH-22,23 dihydro B1a isomer A, 27-OH 22,23 dihydroavermectin B la]
Anthelmintic activity, Trichostrongylus sigmodontis ([1]; 0.0625 mg/kg): I | Activity profile, Trichostrongulus sigmodontis ([1]; 0.0625 mg/kg): I | Activity profile, Trichostrongulus sigmodontis ([1]; 0.125 mg/kg): A (85-100% effective) | Activity profile, Trichostrongulus sigmodontis ([1]; 0.25 mg/kg): A (85-100% effective) | Activity profile, Haemonchus Contortus ([2]; 0.0625 mg/kg): A (85-100% effective) | Activity profile, Haemonchus Contortus ([2]; 0.125 mg/kg): A (85-100% effective) | Activity profile, Haemonchus Contortus ([2]; 0.25 mg/kg): A (85-100% effective) | Activity profile, Trichostrongulus colubriformis ([3]; 0.0625 mg/kg): A (85-100% effective) | Activity profile, Trichostrongulus colubriformis ([3]; 0.125 mg/kg): A (85-100% effective) | Activity profile, Trichostrongulus colubriformis ([3]; 0.25 mg/kg): A (85-100% effective) | Insecticidal activity, Lucilla larva 24 hrs ([4]; 0.5 ppm): I | Insecticidal activity, Lucilla larva 24 hrs ([4]; 1 ppm): I

CO[C@H]1C[C@H](O[C@H]2[C@H](C)O[C@@H](O[C@@H]3/C(C)=C/C[C@@H]4C[C@@H](C[C@]5(CC[C@H](C)[C@@H]([C@@H](C)C(C)O)O5)O4)OC(=O)[C@@H]4C=C(C)[C@@H](O)[C@H]5OC/C(=C\C=C\[C@@H]3C)[C@]54O)C[C@@H]2OC)O[C@@H](C)[C@@H]1O (single isomer, unassigned) [27-OH-22,23 dihydro B1a isomer B, 27-OH 22,23 dihydroavermectin B la]
Anthelmintic activity, Trichostrongylus sigmodontis ([1]; 0.0625 mg/kg): I | Anthelmintic activity, Trichostrongylus sigmodontis ([1]; 0.125 mg/kg, listed as 27-OH ivermectins Isomer B): I | Anthelmintic activity, Trichostrongylus sigmodontis ([1]; 0.25 mg/kg, listed as 27-OH ivermectins Isomer B): I | Activity profile, Trichostrongulus sigmodontis ([1]; 0.0625 mg/kg): I | Activity profile, Trichostrongulus sigmodontis ([1]; 0.125 mg/kg): I | Activity profile, Trichostrongulus sigmodontis ([1]; 0.25 mg/kg): I | Anthelmintic activity, Haemonchus contortus ([2]; Table 2, 0.0625 mg/kg, listed as 27-OH ivermectins Isomer B): I | Activity profile, Haemonchus Contortus ([2]; 0.0625 mg/kg): MA (60-85% effective) | Activity profile, Haemonchus Contortus ([2]; 0.125 mg/kg): A (85-100% effective) | Activity profile, Haemonchus Contortus ([2]; 0.25 mg/kg): A (85-100% effective) | Activity profile, Trichostrongulus colubriformis ([3]; 0.0625 mg/kg): I | Activity profile, Trichostrongulus colubriformis ([3]; 0.125 mg/kg): A (85-100% effective) | Activity profile, Trichostrongulus colubriformis ([3]; 0.25 mg/kg): A (85-100% effective) | Insecticidal activity, Lucilla larva 24 hrs ([4]; 0.5 ppm): I | Insecticidal activity, Lucilla larva 24 hrs ([4]; 1 ppm): I | Insecticidal activity, Lucilla larva 48 hrs ([4]; 0.5 ppm): I | Insecticidal activity, Lucilla larva 48 hrs ([4]; 1 ppm): I

CO[C@H]1C[C@H](O[C@H]2[C@H](C)O[C@@H](O[C@@H]3/C(C)=C/C[C@@H]4C[C@@H](C[C@]5(C=C[C@H](C)[C@@H]([C@@H](C)C(C)O)O5)O4)OC(=O)[C@@H]4C=C(C)[C@@H](O)[C@H]5OC/C(=C\C=C\[C@@H]3C)[C@]54O)C[C@@H]2OC)O[C@@H](C)[C@@H]1O (single isomer, unassigned) [27-OHB1a isomer B, 27-OHB1a]
Activity profile, Trichostrongulus sigmodontis ([1]; 0.25 mg/kg): SLA (35-60% effective) | Activity profile, Haemonchus Contortus ([2]; 0.0625 mg/kg): A (85-100% effective) | Activity profile, Haemonchus Contortus ([2]; 0.125 mg/kg): A (85-100% effective) | Activity profile, Haemonchus Contortus ([2]; 0.25 mg/kg): A (85-100% effective) | Activity profile, Trichostrongulus colubriformis ([3]; 0.0625 mg/kg): A (85-100% effective) | Activity profile, Trichostrongulus colubriformis ([3]; 0.125 mg/kg): A (85-100% effective) | Activity profile, Trichostrongulus colubriformis ([3]; 0.25 mg/kg): A (85-100% effective)

CC[C@H](C)[C@H]1O[C@]2(CC[C@@H]1C)C[C@@H]1C[C@@H](C/C=C(\C)[C@@H](O[C@H]3C[C@H](OC)[C@@H](O[C@H]4C[C@H](OC)[C@@H](O)[C@H](C)O4)[C@H](C)O3)[C@@H](C)/C=C/C=C3\CO[C@@H]4[C@H](O)C(C)=C[C@@H](C(=O)O1)[C@]34O)O2 [22,23 dihydro 8 B1a, 22,23 dihydro B1a, reference compound]
Activity profile, Trichostrongulus sigmodontis ([1]; 0.0625 mg/kg): I | Activity profile, Trichostrongulus sigmodontis ([1]; 0.125 mg/kg): A (85-100% effective) | Activity profile, Trichostrongulus sigmodontis ([1]; 0.25 mg/kg): A (85-100% effective) | Activity profile, Haemonchus Contortus ([2]; 0.0625 mg/kg): A (85-100% effective) | Activity profile, Haemonchus Contortus ([2]; 0.125 mg/kg): A (85-100% effective) | Activity profile, Haemonchus Contortus ([2]; 0.25 mg/kg): A (85-100% effective) | Activity profile, Trichostrongulus colubriformis ([3]; 0.0625 mg/kg): A (85-100% effective) | Activity profile, Trichostrongulus colubriformis ([3]; 0.125 mg/kg): A (85-100% effective) | Activity profile, Trichostrongulus colubriformis ([3]; 0.25 mg/kg): A (85-100% effective)

CC[C@H](C)[C@H]1O[C@]2(C=C[C@@H]1C)C[C@@H]1C[C@@H](C/C=C(\C)[C@@H](O[C@H]3C[C@H](OC)[C@@H](O[C@H]4C[C@H](OC)[C@@H](O)[C@H](C)O4)[C@H](C)O3)[C@@H](C)/C=C/C=C3\CO[C@@H]4[C@H](O)C(C)=C[C@@H](C(=O)O1)[C@]34O)O2 [B1a, avermectin B1a, reference compound]
Activity profile, Trichostrongulus sigmodontis ([1]; 0.0625 mg/kg): SLA (35-60% effective) | Activity profile, Trichostrongulus sigmodontis ([1]; 0.125 mg/kg): A (85-100% effective) | Activity profile, Trichostrongulus sigmodontis ([1]; 0.25 mg/kg): A (85-100% effective) | Activity profile, Haemonchus Contortus ([2]; 0.0625 mg/kg): A (85-100% effective) | Activity profile, Haemonchus Contortus ([2]; 0.125 mg/kg): A (85-100% effective) | Activity profile, Haemonchus Contortus ([2]; 0.25 mg/kg): A (85-100% effective) | Activity profile, Trichostrongulus colubriformis ([3]; 0.0625 mg/kg): A (85-100% effective) | Activity profile, Trichostrongulus colubriformis ([3]; 0.125 mg/kg): A (85-100% effective) | Activity profile, Trichostrongulus colubriformis ([3]; 0.25 mg/kg): A (85-100% effective)
